# Measurements: patent US20040137532A1, “Antibody competition test (act) for the qualitative and conformation dependent quantitative detection of the conformation changes of p-glycoprotein and other cell surface receptors, pumps and proteins, and uses thereof” (priority 2001, published 2004)
# Read-outs that look alike come from different tables or passages of the source.
# Target: P-glycoprotein (Pgp) (Homo sapiens, UniProt P08183)
# Conditions: for conformation change which prevents binding of MM12.10 after UIC2 (efficient in ACT): cells pretreated with modulator/substrate, then UIC2, then FITC-MM12.10, KB-V1 and NIH 3T3 MDR1 cells
# Protocol: The cells were trypsinized as usual, washed twice with PBS (phosphate buffered saline, pH 7,4). 10^6 cells/1 ml PBS (plus 8 mM glucose), pre-incubated for 20 minutes at 37° C. with different drugs, modulators, and without washing the cells, the first (“A”) monoclonal antibody was added to the samples. After a further 30 minutes incubation (at 37° C.) an FITC or 5-sFx conjugated second (“B”) antibody was added to the samples (again without washing the cells), and were incubated at 37° C. for another 30 minutes. In case of the UIC2-shift test the cells were incubated with UIC2 antibody, washed twice, and incubated with goat anti-mouse IgG2a FITC conjugate (F/P=4,3, Sigma) on ice in 100 μl PBS for 45 minutes. The samples washed twice were resuspended in 500 μl PBS, and analyzed in flow cytometer. The antibody concentrations used were: 8 μg/ml MRK16, MC57, MM8.15, MM12.10 and 10 μg/ml UIC2. Daunorubicine (DNR) and calcein accumulation tests: see Goda, K. et al.: Practical guide to physical analysis of cell surface receptors, Ed.: Krasznai, Z. and Mátyus, L., pp. 110-125 (1998); Homolya, L., Holló, Zs., Germann, U. A., Pastan, L, Gottesman, M. M. and Sarkadi, B.: Fluorescent cellular indicators are extruded by the multidrug resistance protein. Journal of Biological Chemistry 268 21493-21496 (1993); Holló, Zs., Homolya, L., Davis, C. W. and Sarkadi, B.: Calcein accumulation as a fluorimetric functional assay of the multidrug trasporter. Biochimica et Biophysica Acta 1191 384-388 199420,21.
# The average fluorescence intensities per cell were determined by Becton Dickinson FACScan (Mountain View, Calif.). Dead cells were excluded from the analysis by propidium-iodate staining. The fluorescence signals were plotted on logarithmic scale, the two-level analysis was carried out by BDIS CellQuest and FloWin softwares (SoftFlow Ltd., Pécs, Hungary).
# The cells are then treated with the first (“A”) antibody (incubation with or without UIC2, MM8.1 or MC57) for 30 minutes, and the cells are labelled with FITC-MM12.10 (“B”) antibody The curves are flow cytometry histograms from representative measurement each. Continous line: control without “A”; bold line: “A”=UIC2; dotted line: “A”=MM8.15 (a-d) or MC57 (e-f). Binding of the “A” antibodies was verified in two independent experiments, with indirect immunfluorescence.
# The ratio of average FITC MM12.10 fluorescence intensities, with and without UIC2 pretreatment give the Rcompetition values (black columns). Cells were pretreated for 20 minutes with reverting agents, and incubated for further 20 minutes with UIC2 antibody, finally the FITC-MM12.10 antibody was used (further 30 minutes incubation). Cells were not washed between the incubation steps. […] UIC2-shift was detected by indirect immunfluorescence; the white columns show the ratio of the average fluorescence intensities detected with and without the reverting treatments (Rshift). On the insert figure the same UIC2-shift data are plotted on magnified scale. The average of 4-6 independent measurements (±SEM) are shown.
# ACT tests were carried out on NIH3T3 MDR1 cells, with different antibody combinations. Following UIC2 or MM12.10 (not conjugated with stain) pretreatment the cells are labelled with FITC or 5sFx conjugated MM12.10, UIC2, MRK16 and MM18.15 antibodies. Before adding the antibodies the cells are pretreated with CSA (grey columns) or not (black columns).
# Chain of P-glycoprotein (Pgp) (P08183 whole entry): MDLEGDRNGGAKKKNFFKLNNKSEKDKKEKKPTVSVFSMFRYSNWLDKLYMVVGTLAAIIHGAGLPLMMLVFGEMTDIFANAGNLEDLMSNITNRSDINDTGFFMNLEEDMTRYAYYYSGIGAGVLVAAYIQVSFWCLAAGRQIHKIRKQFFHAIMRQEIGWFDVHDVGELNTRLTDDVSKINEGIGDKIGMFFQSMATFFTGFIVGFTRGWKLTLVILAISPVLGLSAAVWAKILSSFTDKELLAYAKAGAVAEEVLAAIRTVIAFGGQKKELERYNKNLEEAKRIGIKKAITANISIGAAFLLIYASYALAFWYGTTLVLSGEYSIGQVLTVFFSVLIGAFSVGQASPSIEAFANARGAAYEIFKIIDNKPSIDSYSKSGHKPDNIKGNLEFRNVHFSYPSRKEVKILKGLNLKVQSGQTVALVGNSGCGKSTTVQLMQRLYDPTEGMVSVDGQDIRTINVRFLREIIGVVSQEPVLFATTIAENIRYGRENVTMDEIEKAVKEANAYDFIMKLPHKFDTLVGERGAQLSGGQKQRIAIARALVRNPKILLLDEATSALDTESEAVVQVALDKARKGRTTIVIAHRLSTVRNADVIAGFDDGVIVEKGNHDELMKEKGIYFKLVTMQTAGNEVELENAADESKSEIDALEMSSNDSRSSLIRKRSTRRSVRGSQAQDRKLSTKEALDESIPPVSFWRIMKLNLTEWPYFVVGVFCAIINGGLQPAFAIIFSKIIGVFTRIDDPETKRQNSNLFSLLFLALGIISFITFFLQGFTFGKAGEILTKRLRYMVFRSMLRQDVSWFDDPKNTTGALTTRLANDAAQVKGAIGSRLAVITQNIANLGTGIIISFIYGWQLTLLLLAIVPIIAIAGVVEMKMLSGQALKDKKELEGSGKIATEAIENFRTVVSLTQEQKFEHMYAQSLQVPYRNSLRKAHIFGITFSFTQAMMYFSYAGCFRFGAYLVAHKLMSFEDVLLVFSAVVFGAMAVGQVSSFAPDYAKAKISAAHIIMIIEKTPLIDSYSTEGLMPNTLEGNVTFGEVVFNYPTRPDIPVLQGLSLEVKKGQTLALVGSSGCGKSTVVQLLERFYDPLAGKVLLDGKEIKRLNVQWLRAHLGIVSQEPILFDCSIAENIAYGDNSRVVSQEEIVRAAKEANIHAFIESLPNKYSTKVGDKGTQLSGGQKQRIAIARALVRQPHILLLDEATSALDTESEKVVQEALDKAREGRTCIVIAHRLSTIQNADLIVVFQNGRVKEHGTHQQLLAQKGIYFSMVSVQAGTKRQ
Molecule,conformation change which prevents binding of MM12.10 after UIC2 (efficient in ACT),Rcompetition value in ACT after ATP depletion,conformation change which prevents binding of MM12.10 after UIC2 (efficient in ACT) (listed as valinomycin)
C/C=C/C[C@@H](C)C(=O)[C@H]1C(=O)N[C@@H](C(C)C)C(=O)N(C)CC(=O)N(C)[C@@H](CC(C)C)C(=O)N[C@@H](C(C)C)C(=O)N(C)[C@@H](CC(C)C)C(=O)N[C@@H](C)C(=O)N[C@H](C)C(=O)N(C)[C@@H](CC(C)C)C(=O)N(C)[C@@H](CC(C)C)C(=O)N(C)[C@@H](C(C)C)C(=O)N1C [PSC 833],accomplishes the conformation change,–,–
CC[C@H]1/C=C/C=C/C[C@@H](C)[C@H](O)[C@@](C)(O)C(=O)[C@@H](C)[C@H](O)[C@@H](C)C(=O)[C@@H](C)[C@H](O)[C@@H](C)/C=C/C(=O)O[C@@H]2[C@H](C)[C@H](CC1)O[C@]1(CC[C@H](C)[C@H](C[C@@H](C)O)O1)[C@H]2C [oligomicin],–,big,–
CC(C)[C@@H]1NC(=O)[C@H](C)OC(=O)[C@@H](C(C)C)NC(=O)[C@@H](C(C)C)OC(=O)[C@H](C(C)C)NC(=O)[C@H](C)OC(=O)[C@@H](C(C)C)NC(=O)[C@@H](C(C)C)OC(=O)[C@H](C(C)C)NC(=O)[C@H](C)OC(=O)[C@@H](C(C)C)NC(=O)[C@@H](C(C)C)OC1=O [valinomycine],accomplishes the conformation change,–,efficient
gramicidin,doesn't,–,–
